Laboratory results published in US4371523A, “Reducing the aggregation of insulin in solution” (The Regents of the University of California, priority 1980, dated 1983).
“Also recorded” adds a separate entry of the source.

Assays:
[1] = target: T1, single component neutral pork zinc insulin (Sus scrofa, UniProt P01315); assay: Controlled shaking of zinc insulin solutions in test tubes, optical density at 600 nm; assay type: physicochemical; settings: for Optical Density ± 1 × SE: zinc insulin 50 U/ml, OD at 600 nm
T1 construct: single component, neutral, pork, zinc-insulin (U.500 regular Iletin II., Eli Lilly & Company); purchased Eli Lilly & Company U.500 regular Iletin II
Description: In vitro testing of single component neutral pork zinc insulin was undertaken with a number of added agents. Solutions at about neutral pH and at acid pH were tested. In addition, some testing was also undertaken with Na insulin.
The tests were conducted using plastic tybes (5 ml test tubes, Sarstedt, sealed by plastic caps covered with paraffin) each containing 2 ml of the insulin solutions noted below. The tubes were continuously agitated in a metabolic shaking incubator (Dubnoff E.C.A. Co.) at 60 to 80 r.p.m. and 37° C. for periods up to sixteen days.
The zinc insulin solutions were prepared by appropriate dilutions of highly concentrated (500 U/ml) single component, neutral, pork, zinc-insulin (U.500 regular Iletin II., Eli Lilly & Company). The unbuffered diluting fluid contained glycerin, 16 mg/ml, and phenol, 2 mg/ml of distilled water (Eli Lilly & Company). […] Final insulin concentration in all solutions was 50 U/ml (2 mg/ml).
Insulin solutions with amino acid added were prepared by addition of the dry amino acids (Sigma Company) to the neutral zinc or sodium insulin solutions. Final concentration of the amino acid additives was 7 mg per ml of insulin solution. pH was adjusted, when necessary, to 7.5 for neutral insulin mixtures and to 3.3-3.5 for acid insulin mixtures.
Several non-amino carboxylic acids, i.e., lactic acid, acetic acid, and citric acid, were added under the same conditions of concentration and pH as described for the amino acids.
The various insulin solutions, both as made up without additives and with additives, were shaken as noted above for up to sixteen days, at which time the solutions were examined with an optical densitometer at a wave length 600 nm. The optical density (OD) of each solution was an indication of the amount of aggregation present after the shaking period. The higher the optical density, the greater the aggregation in that solution.

[2] = target: T2, pork sodium-insulin (Sus scrofa, UniProt P01315); assay: Controlled shaking of Na insulin solutions in test tubes, optical density at 600 nm; assay type: physicochemical; settings: for Optical Density ± 1 × SE: Na insulin 50 U/ml, OD at 600 nm
T2 construct: pork sodium-insulin crystals (U.1000 neutral sodium insulin special pork obtained from Eli Lilly & Company); purchased Eli Lilly & Company U.1000 neutral sodium insulin special pork
Description: In vitro testing of single component neutral pork zinc insulin was undertaken with a number of added agents. Solutions at about neutral pH and at acid pH were tested. In addition, some testing was also undertaken with Na insulin. The tests were conducted using plastic tybes (5 ml test tubes, Sarstedt, sealed by plastic caps covered with paraffin) each containing 2 ml of the insulin solutions noted below. The tubes were continuously agitated in a metabolic shaking incubator (Dubnoff E.C.A. Co.) at 60 to 80 r.p.m. and 37° C. for periods up to sixteen days. The sodium insulin solutions were made by dissolving pork sodium-insulin crystals (U.1000 neutral sodium insulin special pork obtained from Eli Lilly & Company) in the same diluting fluid as utilized with the zinc insulin. The solutions were adjusted to neutral or acid pH as indicated above. Final insulin concentration in all solutions was 2 mg/ml (50 U/ml). Insulin solutions with amino acid added were prepared by addition of the dry amino acids (Sigma Company) to the neutral zinc or sodium insulin solutions. Final concentration of the amino acid additives was 7 mg per ml of insulin solution. pH was adjusted, when necessary, to 7.5 for neutral insulin mixtures and to 3.3-3.5 for acid insulin mixtures. The various insulin solutions, both as made up without additives and with additives, were shaken as noted above for up to sixteen days, at which time the solutions were examined with an optical densitometer at a wave length 600 nm. The optical density (OD) of each solution was an indication of the amount of aggregation present after the shaking period. The higher the optical density, the greater the aggregation in that solution.

[3] = tested on: insulin; settings: supplemental material added to insulin solution; cited from earlier work
[4] = agent added to insulin solution at acid pH 3.3-3.5
[5] = pH 3.3-3.5, shaken 16 days at 37° C.
[6] = pH 7.4, shaken 16 days at 37° C., higher OD = greater aggregation

T1 sequence (P01315 25-54 limits assumed): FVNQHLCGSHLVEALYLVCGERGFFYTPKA
T1 sequence (P01315 88-108 limits assumed): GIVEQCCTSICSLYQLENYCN
T2 sequence (P01315 25-54 limits assumed): as the sequence (P01315 25-54 limits assumed) above

| Compound | Protective effect against insulin aggregation (in words) [1, 4] | Optical Density ± 1 × SE [1, 6] | further results |
| --- | --- | --- | --- |
| CC(=O)O [Acetic Acid] | do not prevent aggregation; also recorded: a comparable protective effect was not noted | – | Protective effect against insulin aggregation (in words) ([1]; agent added to insulin solution at acid pH 3.3-3.5, listed as acetate): exacerbate aggregation |
| C[C@H](N)C(=O)O [Alanine] | no protective effect was noted | 0.84 ± 0.04 | Optical Density ± 1 × SE [1, 5]: 0.41 ± 0.02 |
| N=C(N)NCCC[C@H](N)C(=O)O [Arginine] | no protective effect was noted | 0.074 ± 0.03 | Observation of the solution after shaking ([1]; zinc insulin, pH 7.4, 16 days): Gel formed |
| NC(=O)C[C@H](N)C(=O)O [Asparagine] | no protective effect was noted | 0.87 ± 0.13 | – |
| N[C@@H](CC(=O)O)C(=O)O [Aspartic Acid] | – | 0.51 ± 0.078 | Optical Density ± 1 × SE ([2]; pH 3.5, shaken at 37° C.): 0.10 ± 0.01; Protective effect on Na insulin solutions (in words) ([2]; acid pH): some protective effect; Protective effect against insulin aggregation (in words) ([1]; agent added to insulin solution at acid pH 3.3-3.5, listed as Aspartic acid): more effective than glutamic acid; also recorded: particularly effective in protecting insulin solutions from aggregation; Protective effect against insulin aggregation (in words) ([1]; agent added to insulin solution at acid pH 3.3-3.5, listed as aspartic acid): prevented the development of any appreciable aggregation throughout the entire experiment; Protective effect against insulin aggregation (in words) ([1]; agent added to insulin solution at neutral pH (about pH 7, pH 7.4)): do not offer any effective protection; also recorded: the protective effect of the agents are no longer apparent; Optical Density ± 1 × SE [1, 5]: 0.084 ± 0.009 |
| O=C(O)CC(O)(CC(=O)O)C(=O)O [Citric Acid] | do not prevent aggregation; also recorded: a comparable protective effect was not noted | – | Protective effect against insulin aggregation (in words) ([1]; agent added to insulin solution at acid pH 3.3-3.5, listed as citrate): exacerbate aggregation |
| N[C@@H](CS)C(=O)O [Cysteine] | – | 0.34 ± 0.13 | Effect in preventing the aggregation of insulin in solution over extended periods of time [3]: do not appear to have any appreciable effect; Optical Density ± 1 × SE [1, 5]: 0.39 ± 0.08 |
| N[C@@H](CCC(=O)O)C(=O)O [Glutamic Acid] | – | 0.717 ± 0.266 | Optical Density ± 1 × SE ([2]; pH 3.5, shaken at 37° C.): 0.13 ± 0.03; Protective effect against insulin aggregation (in words) ([1]; agent added to insulin solution at acid pH 3.3-3.5, listed as Glutamic acid): prevented the development of any appreciable aggregation throughout the entire experiment; Protective effect against insulin aggregation (in words) ([1]; agent added to insulin solution at acid pH 3.3-3.5, listed as glutamic acid): particularly effective in protecting insulin solutions from aggregation; Protective effect against insulin aggregation (in words) ([1]; agent added to insulin solution at neutral pH (about pH 7, pH 7.4), listed as Glutamic acid): do not offer any effective protection; Protective effect against insulin aggregation (in words) ([1]; agent added to insulin solution at neutral pH (about pH 7, pH 7.4), listed as glutamic acid): the protective effect of the agents are no longer apparent; Optical Density ± 1 × SE [1, 5]: 0.123 ± 0.02 |
| NC(=O)CC[C@H](N)C(=O)O [Glutamine] | no protective effect was noted | 0.68 ± 0.03 | – |
| NCC(=O)O [Glycine] | no protective effect was noted | 0.66 ± 0.095 | Effect in preventing the aggregation of insulin in solution over extended periods of time [3]: do not appear to have any appreciable effect; Optical Density ± 1 × SE [1, 5]: 0.28 ± 0.04 |
| N[C@@H](Cc1c[nH]cn1)C(=O)O [Histidine] | no protective effect was noted | 0.245 ± 0.08 | Effect in preventing the aggregation of insulin in solution over extended periods of time [3]: do not appear to have any appreciable effect |
| CC(O)C(=O)O (centres unmarked) [Lactic Acid] | do not prevent aggregation; also recorded: a comparable protective effect was not noted | – | Protective effect against insulin aggregation (in words) ([1]; agent added to insulin solution at acid pH 3.3-3.5, listed as lactate): exacerbate aggregation |
| CC(C)C[C@H](N)C(=O)O [Leucine] | no protective effect was noted | 0.695 ± 0.03 | – |
| NCCCC[C@H](N)C(=O)O [Lysine] | no protective effect was noted | 0.25 ± 0.08 | Optical Density ± 1 × SE [1, 5]: 0.35 ± 0.13 |
| CSCC[C@H](N)C(=O)O [Methionine] | no protective effect was noted | 0.74 ± 0.22 | – |
| O=C(O)[C@@H]1CCCN1 [Proline] | no protective effect was noted | 0.665 ± 0.21 | – |
| N[C@@H](CO)C(=O)O [Serine] | no protective effect was noted | 0.89 ± 0.02 | – |
| C[C@@H](O)[C@H](N)C(=O)O [Threonine] | no protective effect was noted | 0.76 ± 0.02 | – |
| N[C@@H](Cc1c[nH]c2ccccc12)C(=O)O [Tryptophane] | no protective effect was noted | 0.585 ± 0.200 | – |
| CC(C)[C@H](N)C(=O)O [Valine] | no protective effect was noted | 0.64 ± 0.26 | – |
| OCc1ccccc1 [benzol alcohol] | – | – | Effect in preventing the aggregation of insulin in solution over extended periods of time [3]: do not appear to have any appreciable effect |
| N[C@@H](CSSC[C@H](N)C(=O)O)C(=O)O [cystine] | no protective effect was noted | – | – |
| O=C(O)CN(CCN(CC(=O)O)CC(=O)O)CC(=O)O [ethylene diamine tetraacetic acid] | – | – | Effect in preventing the aggregation of insulin in solution over extended periods of time [3]: do not appear to have any appreciable effect |
| Cl [hydrochloric acid] | a comparable protective effect was not noted | – | – |
| O=C([O-])O.[Na+] [sodium bicarbonate] | – | – | Effect in preventing the aggregation of insulin in solution over extended periods of time [3]: do not appear to have any appreciable effect |
| [Cl-].[Na+] [sodium chloride] | – | – | Effect in preventing the aggregation of insulin in solution over extended periods of time [3]: do not appear to have any appreciable effect |
| O=P(O)(O)O [sodium phosphate] | – | – | Effect in preventing the aggregation of insulin in solution over extended periods of time [3]: do not appear to have any appreciable effect |
| Na Insulin: pork sodium-insulin crystals (U.1000 neutral sodium insulin special pork, Eli Lilly & Company) in solution, no agent added | – | – | Optical Density ± 1 × SE ([2]; pH 3.5, shaken at 37° C.): 0.128 ± 0.02; Optical Density ± 1 × SE ([2]; pH 7.4, shaken at 37° C.): 0.18 ± 0.02; Aggregation of Na insulin (in words) ([2]; pH 3.3-3.5): less than at pH 7.4 but is nevertheless appreciable; Aggregation of Na insulin (in words) ([2]; pH 7.4, by 16 days): also aggregates; also recorded: aggregation is less than that seen for neutral zinc insulin at the same pH |
